Measured values from ChEMBL document CHEMBL4804284.
Active and inactive are the calls of the source. The rule behind the calls is not given here.

Tests used:
[1] = molecular target: Dual serine/threonine and tyrosine protein kinase (Homo sapiens) (UniProt Q6XUX3); assay: Inhibition of DNA-tagged human RIPK5 assessed as percent of control at 50000 nM by qPCR analysis relative to control; parameters: scale not given: the % may be the effect or the level left
[2] = molecular target: Hormonally up-regulated neu tumor-associated kinase (Homo sapiens) (UniProt P57058); assay: Inhibition of DNA-tagged human HUNK assessed as percent of control at 50000 nM by qPCR analysis relative to control; parameters: scale not given: the % may be the effect or the level left
[3] = molecular target: Mitogen-activated protein kinase kinase kinase 9 (Homo sapiens) (UniProt P80192); assay: Inhibition of DNA-tagged human MLK1 assessed as percent of control at 50000 nM by qPCR analysis relative to control; parameters: scale not given: the % may be the effect or the level left
[4] = tested on: Mast/stem cell growth factor receptor Kit (Homo sapiens), P10721 [L576P]; assay: Inhibition of DNA-tagged human KIT L576P mutant assessed as percent of control at 50000 nM by qPCR analysis relative to control; parameters: scale not given: the % may be the effect or the level left
[5] = molecular target: Protein kinase C delta type (Homo sapiens) (UniProt Q05655); assay: Inhibition of DNA-tagged human PRKCD assessed as percent of control at 50000 nM by qPCR analysis relative to control; parameters: scale not given: the % may be the effect or the level left
[6] = molecular target: Non-receptor tyrosine-protein kinase TYK2 (Homo sapiens) (UniProt P29597); assay: Inhibition of DNA-tagged human TYK2 JH2 pseudokinase domain assessed as percent of control at 50000 nM by qPCR analysis relative to control; parameters: scale not given: the % may be the effect or the level left
[7] = molecular target: Serine/threonine-protein kinase MARK2 (Homo sapiens) (UniProt Q7KZI7); assay: Inhibition of DNA-tagged human MARK2 assessed as percent of control at 50000 nM by qPCR analysis relative to control; parameters: scale not given: the % may be the effect or the level left
[8] = molecular target: Homeodomain-interacting protein kinase 1 (Homo sapiens) (UniProt Q86Z02); assay: Inhibition of DNA-tagged human HIPK1 assessed as percent of control at 50000 nM by qPCR analysis relative to control; parameters: scale not given: the % may be the effect or the level left
[9] = molecular target: Interferon-induced, double-stranded RNA-activated protein kinase (Homo sapiens) (UniProt P19525); assay: Inhibition of DNA-tagged human PRKR assessed as percent of control at 50000 nM by qPCR analysis relative to control; parameters: scale not given: the % may be the effect or the level left
Interferon-induced, double-stranded RNA-activated protein kinase (Homo sapiens), sequence (P19525 whole entry): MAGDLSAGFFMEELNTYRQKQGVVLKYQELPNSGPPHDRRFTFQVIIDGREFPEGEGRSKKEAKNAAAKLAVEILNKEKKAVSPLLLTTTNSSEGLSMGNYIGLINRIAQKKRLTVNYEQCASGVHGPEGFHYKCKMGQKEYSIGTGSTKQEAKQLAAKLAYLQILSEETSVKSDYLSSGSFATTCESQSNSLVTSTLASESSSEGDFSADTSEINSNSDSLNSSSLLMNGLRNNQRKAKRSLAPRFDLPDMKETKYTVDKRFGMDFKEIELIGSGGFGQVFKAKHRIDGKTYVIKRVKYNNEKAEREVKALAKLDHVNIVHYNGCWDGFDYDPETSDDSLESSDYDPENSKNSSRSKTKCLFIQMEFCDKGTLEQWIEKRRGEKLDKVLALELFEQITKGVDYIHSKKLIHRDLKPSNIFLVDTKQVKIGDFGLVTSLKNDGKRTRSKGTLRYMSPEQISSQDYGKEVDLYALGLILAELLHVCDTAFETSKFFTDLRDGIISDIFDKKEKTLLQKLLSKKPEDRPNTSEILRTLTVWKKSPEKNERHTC

[10] = molecular target: TGF-beta receptor type-1 (Homo sapiens) (UniProt P36897); assay: Inhibition of DNA-tagged human TGFBR1 assessed as percent of control at 50000 nM by qPCR analysis relative to control; parameters: scale not given: the % may be the effect or the level left
TGF-beta receptor type-1 (Homo sapiens), sequence (P36897 whole entry): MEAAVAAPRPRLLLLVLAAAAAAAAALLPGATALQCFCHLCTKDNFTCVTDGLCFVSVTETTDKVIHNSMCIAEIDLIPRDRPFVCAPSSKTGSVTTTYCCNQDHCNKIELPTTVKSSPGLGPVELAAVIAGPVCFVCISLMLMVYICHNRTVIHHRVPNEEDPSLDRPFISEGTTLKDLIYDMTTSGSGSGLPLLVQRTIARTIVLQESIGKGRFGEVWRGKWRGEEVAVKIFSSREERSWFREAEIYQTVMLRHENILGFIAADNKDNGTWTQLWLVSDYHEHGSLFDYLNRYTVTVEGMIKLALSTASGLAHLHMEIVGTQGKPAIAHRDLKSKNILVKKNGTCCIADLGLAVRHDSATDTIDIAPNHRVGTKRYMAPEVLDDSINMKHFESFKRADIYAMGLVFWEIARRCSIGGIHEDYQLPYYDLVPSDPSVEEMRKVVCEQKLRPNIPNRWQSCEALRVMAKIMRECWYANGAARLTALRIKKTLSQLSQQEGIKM

[11] = molecular target: Proto-oncogene tyrosine-protein kinase ROS (Homo sapiens) (UniProt P08922); assay: Inhibition of DNA-tagged human ROS1 assessed as percent of control at 50000 nM by qPCR analysis relative to control; parameters: scale not given: the % may be the effect or the level left
Proto-oncogene tyrosine-protein kinase ROS (Homo sapiens), sequence (P08922 whole entry): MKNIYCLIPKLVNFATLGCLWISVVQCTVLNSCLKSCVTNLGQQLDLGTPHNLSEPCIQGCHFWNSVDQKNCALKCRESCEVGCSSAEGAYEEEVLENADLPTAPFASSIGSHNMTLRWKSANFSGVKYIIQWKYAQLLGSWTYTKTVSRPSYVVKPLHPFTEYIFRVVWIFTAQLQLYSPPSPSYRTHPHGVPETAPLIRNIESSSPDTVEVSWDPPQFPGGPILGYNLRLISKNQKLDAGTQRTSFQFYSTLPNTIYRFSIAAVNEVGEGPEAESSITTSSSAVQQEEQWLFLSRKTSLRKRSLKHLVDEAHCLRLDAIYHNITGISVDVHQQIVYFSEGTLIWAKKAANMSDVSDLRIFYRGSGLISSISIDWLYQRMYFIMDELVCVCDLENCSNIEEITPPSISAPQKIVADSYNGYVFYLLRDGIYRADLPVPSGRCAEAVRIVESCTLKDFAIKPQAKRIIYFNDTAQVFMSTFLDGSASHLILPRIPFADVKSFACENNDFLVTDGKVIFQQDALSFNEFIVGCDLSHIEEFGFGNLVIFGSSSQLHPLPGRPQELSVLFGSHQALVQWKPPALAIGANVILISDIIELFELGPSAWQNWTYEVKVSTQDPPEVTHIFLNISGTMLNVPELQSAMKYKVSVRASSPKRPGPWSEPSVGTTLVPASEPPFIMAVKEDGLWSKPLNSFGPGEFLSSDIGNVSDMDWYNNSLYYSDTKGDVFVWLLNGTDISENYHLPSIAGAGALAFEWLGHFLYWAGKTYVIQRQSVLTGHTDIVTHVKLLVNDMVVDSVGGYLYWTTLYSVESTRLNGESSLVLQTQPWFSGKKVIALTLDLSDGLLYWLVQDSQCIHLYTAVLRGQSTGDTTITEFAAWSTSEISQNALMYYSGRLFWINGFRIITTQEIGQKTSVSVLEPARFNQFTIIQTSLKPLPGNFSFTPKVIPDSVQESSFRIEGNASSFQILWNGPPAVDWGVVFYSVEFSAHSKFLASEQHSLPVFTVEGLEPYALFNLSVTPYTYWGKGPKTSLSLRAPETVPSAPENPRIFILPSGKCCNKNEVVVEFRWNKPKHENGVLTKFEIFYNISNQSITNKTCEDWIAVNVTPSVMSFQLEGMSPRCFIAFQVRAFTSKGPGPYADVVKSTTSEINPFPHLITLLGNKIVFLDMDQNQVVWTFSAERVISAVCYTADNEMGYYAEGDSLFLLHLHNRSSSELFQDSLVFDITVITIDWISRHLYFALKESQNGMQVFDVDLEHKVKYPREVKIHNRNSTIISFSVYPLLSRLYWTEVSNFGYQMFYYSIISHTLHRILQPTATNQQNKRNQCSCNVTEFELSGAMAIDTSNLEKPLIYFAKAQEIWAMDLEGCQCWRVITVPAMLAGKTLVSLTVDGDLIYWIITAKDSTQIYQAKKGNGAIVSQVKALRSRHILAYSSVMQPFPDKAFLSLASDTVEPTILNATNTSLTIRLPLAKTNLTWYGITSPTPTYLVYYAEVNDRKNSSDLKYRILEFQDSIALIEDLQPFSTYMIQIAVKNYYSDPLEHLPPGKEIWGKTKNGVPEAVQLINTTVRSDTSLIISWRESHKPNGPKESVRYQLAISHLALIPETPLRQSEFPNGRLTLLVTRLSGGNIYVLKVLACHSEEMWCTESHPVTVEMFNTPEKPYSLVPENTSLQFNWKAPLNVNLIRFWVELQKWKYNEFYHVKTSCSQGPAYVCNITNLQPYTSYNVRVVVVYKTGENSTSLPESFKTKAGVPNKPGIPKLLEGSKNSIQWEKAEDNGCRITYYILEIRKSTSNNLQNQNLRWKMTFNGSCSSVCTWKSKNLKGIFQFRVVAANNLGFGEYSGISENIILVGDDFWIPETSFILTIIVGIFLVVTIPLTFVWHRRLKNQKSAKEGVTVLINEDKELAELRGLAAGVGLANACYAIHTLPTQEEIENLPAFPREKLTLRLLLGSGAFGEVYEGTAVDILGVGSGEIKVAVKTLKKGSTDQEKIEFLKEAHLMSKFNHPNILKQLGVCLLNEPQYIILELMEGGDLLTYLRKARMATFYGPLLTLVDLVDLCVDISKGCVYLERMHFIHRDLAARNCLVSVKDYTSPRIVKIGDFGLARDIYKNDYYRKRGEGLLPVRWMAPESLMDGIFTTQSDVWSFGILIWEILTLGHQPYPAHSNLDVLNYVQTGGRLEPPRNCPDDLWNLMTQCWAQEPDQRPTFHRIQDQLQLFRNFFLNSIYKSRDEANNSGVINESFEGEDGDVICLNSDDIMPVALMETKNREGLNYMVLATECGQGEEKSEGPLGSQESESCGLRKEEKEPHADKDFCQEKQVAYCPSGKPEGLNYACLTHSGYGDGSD

U-266 = assay: Cytotoxicity against human U-266 cells at 0.1-100 uM assessed as decrease in cell viability relative to control; format: functional, cell-based
[12] = molecular target: Casein kinase I isoform alpha-like (Homo sapiens) (UniProt Q8N752); assay: Inhibition of DNA-tagged human CSNK1A1L assessed as percent of control at 50000 nM by qPCR analysis relative to control; parameters: scale not given: the % may be the effect or the level left
[13] = molecular target: Serine/threonine-protein kinase ULK1 (Homo sapiens) (UniProt O75385); assay: Inhibition of DNA-tagged human ULK1 assessed as percent of control at 50000 nM by qPCR analysis relative to control; parameters: scale not given: the % may be the effect or the level left
[14] = molecular target: Dual specificity mitogen-activated protein kinase kinase 5 (Homo sapiens) (UniProt Q13163); assay: Inhibition of DNA-tagged human MEK5 assessed as percent of control at 50000 nM by qPCR analysis relative to control; parameters: scale not given: the % may be the effect or the level left
[15] = molecular target: Calcium/calmodulin-dependent protein kinase kinase 1 (Homo sapiens) (UniProt Q8N5S9); assay: Inhibition of DNA-tagged human CAMKK1 assessed as percent of control at 50000 nM by qPCR analysis relative to control; parameters: scale not given: the % may be the effect or the level left
[16] = molecular target: Peripheral plasma membrane protein CASK (Homo sapiens) (UniProt O14936); assay: Inhibition of DNA-tagged human CASK assessed as percent of control at 50000 nM by qPCR analysis relative to control; parameters: scale not given: the % may be the effect or the level left
[17] = molecular target: Phosphatidylinositol 3-kinase C2 domain-containing subunit gamma (Homo sapiens) (UniProt O75747); assay: Inhibition of DNA-tagged human PIK3C2G assessed as percent of control at 50000 nM by qPCR analysis relative to control; parameters: scale not given: the % may be the effect or the level left
[18] = molecular target: Wee1-like protein kinase 2 (Homo sapiens) (UniProt P0C1S8); assay: Inhibition of DNA-tagged human WEE2 assessed as percent of control at 50000 nM by qPCR analysis relative to control; parameters: scale not given: the % may be the effect or the level left
[19] = molecular target: Calcium/calmodulin-dependent protein kinase type II subunit beta (Homo sapiens) (UniProt Q13554); assay: Inhibition of DNA-tagged human CAMK2B assessed as percent of control at 50000 nM by qPCR analysis relative to control; parameters: scale not given: the % may be the effect or the level left
Calcium/calmodulin-dependent protein kinase type II subunit beta (Homo sapiens), sequence (Q13554 whole entry): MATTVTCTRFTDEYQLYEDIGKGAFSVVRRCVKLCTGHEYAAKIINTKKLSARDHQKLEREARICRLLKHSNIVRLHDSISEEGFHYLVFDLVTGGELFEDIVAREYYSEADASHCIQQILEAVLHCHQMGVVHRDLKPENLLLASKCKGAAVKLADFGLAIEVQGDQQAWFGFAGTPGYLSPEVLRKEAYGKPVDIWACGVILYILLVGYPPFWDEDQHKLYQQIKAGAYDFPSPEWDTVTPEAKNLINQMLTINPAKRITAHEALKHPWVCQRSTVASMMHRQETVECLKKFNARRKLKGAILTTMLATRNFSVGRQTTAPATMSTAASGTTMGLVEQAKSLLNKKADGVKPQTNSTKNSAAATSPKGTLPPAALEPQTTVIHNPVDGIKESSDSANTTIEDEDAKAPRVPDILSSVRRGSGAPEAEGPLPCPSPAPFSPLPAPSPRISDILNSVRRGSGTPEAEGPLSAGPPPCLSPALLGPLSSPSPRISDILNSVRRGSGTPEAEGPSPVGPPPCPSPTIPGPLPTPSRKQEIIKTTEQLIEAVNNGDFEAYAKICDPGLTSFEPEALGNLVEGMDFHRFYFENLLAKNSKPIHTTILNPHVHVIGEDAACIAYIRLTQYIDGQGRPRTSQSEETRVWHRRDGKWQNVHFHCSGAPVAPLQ

[20] = molecular target: Activated CDC42 kinase 1 (Homo sapiens) (UniProt Q07912); assay: Inhibition of DNA-tagged human TNK2 assessed as percent of control at 50000 nM by qPCR analysis relative to control; parameters: scale not given: the % may be the effect or the level left
[21] = molecular target: Serine/threonine-protein kinase DCLK3 (Homo sapiens) (UniProt Q9C098); assay: Inhibition of DNA-tagged human DCAMKL3 assessed as percent of control at 50000 nM by qPCR analysis relative to control; parameters: scale not given: the % may be the effect or the level left
[22] = tested on: Leucine-rich repeat serine/threonine-protein kinase 2 (Homo sapiens), Q5S007 [G2019S]; assay: Inhibition of DNA-tagged human LRRK2 G2019S mutant assessed as percent of control at 50000 nM by qPCR analysis relative to control; parameters: scale not given: the % may be the effect or the level left
[23] = molecular target: Wee1-like protein kinase (Homo sapiens) (UniProt P30291); assay: Inhibition of DNA-tagged human WEE1 assessed as percent of control at 50000 nM by qPCR analysis relative to control; parameters: scale not given: the % may be the effect or the level left
[24] = molecular target: Dual specificity protein kinase CLK4 (Homo sapiens) (UniProt Q9HAZ1); assay: Inhibition of DNA-tagged human CLK4 assessed as percent of control at 50000 nM by qPCR analysis relative to control; parameters: scale not given: the % may be the effect or the level left
Dual specificity protein kinase CLK4 (Homo sapiens), sequence (Q9HAZ1 whole entry, looked up): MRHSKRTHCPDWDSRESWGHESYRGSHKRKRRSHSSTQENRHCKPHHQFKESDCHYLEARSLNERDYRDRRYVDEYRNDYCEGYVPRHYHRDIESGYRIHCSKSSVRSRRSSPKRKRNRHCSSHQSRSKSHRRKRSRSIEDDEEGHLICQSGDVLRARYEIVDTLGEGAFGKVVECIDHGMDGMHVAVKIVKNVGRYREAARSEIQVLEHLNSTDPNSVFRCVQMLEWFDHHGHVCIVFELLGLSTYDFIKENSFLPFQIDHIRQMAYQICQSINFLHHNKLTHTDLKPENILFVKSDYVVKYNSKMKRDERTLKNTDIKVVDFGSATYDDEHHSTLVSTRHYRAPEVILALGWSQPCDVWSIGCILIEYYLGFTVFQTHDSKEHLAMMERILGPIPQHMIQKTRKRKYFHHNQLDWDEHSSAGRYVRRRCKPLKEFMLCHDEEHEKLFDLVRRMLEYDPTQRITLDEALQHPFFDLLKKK

HEL = assay: Cytotoxicity against human HEL cells at 0.1-100 uM assessed as decrease in cell viability relative to control; format: functional, cell-based
[25] = molecular target: Calcium-dependent protein kinase 1 (Plasmodium falciparum) (UniProt P62344); assay: Inhibition of DNA-tagged Plasmodium falciparum CDPK1 assessed as percent of control at 50000 nM by qPCR analysis relative to control; parameters: scale not given: the % may be the effect or the level left
Calcium-dependent protein kinase 1 (Plasmodium falciparum), sequence (P62344 2-524 limits assumed): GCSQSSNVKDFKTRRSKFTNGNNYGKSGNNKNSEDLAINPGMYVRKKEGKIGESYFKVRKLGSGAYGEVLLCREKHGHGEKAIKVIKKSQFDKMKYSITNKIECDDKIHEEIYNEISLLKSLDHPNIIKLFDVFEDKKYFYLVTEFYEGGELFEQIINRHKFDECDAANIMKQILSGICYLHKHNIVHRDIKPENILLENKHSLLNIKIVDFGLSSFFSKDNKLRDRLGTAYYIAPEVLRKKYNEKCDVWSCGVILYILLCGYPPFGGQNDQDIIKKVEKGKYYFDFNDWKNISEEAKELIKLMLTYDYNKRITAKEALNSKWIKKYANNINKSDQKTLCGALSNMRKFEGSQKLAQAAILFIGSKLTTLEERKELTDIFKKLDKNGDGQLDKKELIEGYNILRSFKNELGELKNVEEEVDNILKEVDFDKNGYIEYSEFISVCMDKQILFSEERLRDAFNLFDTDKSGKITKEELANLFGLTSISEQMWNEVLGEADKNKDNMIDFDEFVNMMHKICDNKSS

[26] = molecular target: Phosphatidylinositol 5-phosphate 4-kinase type-2 gamma (Homo sapiens) (UniProt Q8TBX8); assay: Inhibition of DNA-tagged human PIP5K2C assessed as percent of control at 50000 nM by qPCR analysis relative to control; parameters: scale not given: the % may be the effect or the level left
[27] = molecular target: Mitogen-activated protein kinase 7 (Homo sapiens) (UniProt Q13164); assay: Inhibition of DNA-tagged human ERK5 assessed as percent of control at 50000 nM by qPCR analysis relative to control; parameters: scale not given: the % may be the effect or the level left
[28] = molecular target: Tyrosine-protein kinase Lck (Homo sapiens) (UniProt P06239); assay: Inhibition of DNA-tagged human LCK assessed as percent of control at 50000 nM by qPCR analysis relative to control; parameters: scale not given: the % may be the effect or the level left

CN1C(=O)/C(=C2/C(=O)Nc3ccccc32)c2ccccc21
Activity [1]: 92% | Activity [2]: 98% | Activity [3]: 100% | Activity [4]: 98% | Activity [5]: 100% | Activity [6]: 88% | Activity [7]: 75% | Activity [8]: 83% | Activity [9]: 80% | Activity [10]: 100% | Activity [11]: 81% | Activity (U-266): Active | Activity [12]: 97% | Activity [13]: 68% | Activity [14]: 97% | Activity [15]: 86% | Activity [16]: 100% | Activity [17]: 99% | Activity [18]: 95% | Activity [19]: 86% | Activity [20]: 93% | Activity [21]: 99% | Activity [22]: 74% | Activity [23]: 91% | Activity [24]: 100% | Activity (HEL): Active | Activity [25]: 87% | Activity [26]: 55% | Activity [27]: 97% | Activity [28]: 96%
